Source: patent US6338963B1, “Use of carbon monoxide dependent guanylyl cyclase modifiers to stimulate neuritogenesis” (NeoTherapeutics, Inc., priority 1994, dated 2002)
Read-outs that look alike come from different tables or passages of the source.

Legend:
acetylcholine receptors = assay type: binding, mice; details: for number of receptors (B max): mice treated 30 mg/kg 2 hours prior to sacrifice
adenosine receptor = experiment: Receptor ligand binding in vitro, adenosine
Experimental: AIT-082 was evaluated for its ability to inhibit ligand binding to 38 isolated receptors.

mice = experiment: Home cage locomotor activity; assay type: in vivo
Experimental: To measure home cage locomotor activity, the home cage was placed on a platform of an activity monitor (Stoelting Instruments). Home cage locomotor activity movements were recorded at one minute intervals for 15 minutes. Subjects received saline or AIT-082 and were returned to their home cages. Ten minutes after injection, the home cage was replaced on the platform of the activity monitor. Home cage locomotor activity movements were recorded at one minute intervals for 30 minutes. During the first five minutes, grooming activity was also monitored and recorded.

BDNF mRNA = experiment: Northern blot of neurotrophin mRNA from astrocytes: BDNF; assay type: cell-based, NIH Swiss mice; design: key: The conditions which produced a detectable amount of each of the neurotrophin mRNAs are indicated by a “+”; a “++” indicating that at least twice the detectable amount was present; Those blots which were negative are indicated by a “−”; details: 24 hours
Experimental: Induction of neurotrophin mRNA was determined by northern blot analysis of astrocytes cultured with AIT-082, NGF, or both. The cells were harvested and RNA extracted at 24 hours after treatment.
More particularly, astrocytes from the cerebral cortex of NIH Swiss mice (Harlan) were isolated. Briefly, newborn pups (0-24 hours) were decapitated. Their brains were removed under aseptic conditions and were placed in modified Dulbecco's medium (DMEM) containing 20% heat-inactivated horse serum (Hyclone) (“complete medium”). The neopallium was then dissected from each cerebral hemisphere and minced into 1 mm cubes.
The astrocytes were then isolated by mechanical dissociation. The cubes were vortexed at maximum speed for one minute. The cell suspension was then passed first through 75 mm Nitex then through 10 mm Nitex. The resulting cell suspension was diluted in complete medium to a final concentration of one brain per 10 ml of complete medium. Ten milliliters of the diluted cell suspension was added to each 100 mm Falcon tissue culture plate (Fisher). After 3 days the medium was replaced with 10 ml fresh complete medium and subsequently was replaced twice weekly with DMEM containing 10% heat inactivated horse serum (“growth medium”). After two weeks in culture the astrocytes formed a confluent monolayer.
For RNA extraction, astrocytes were trypsinized. The astrocytes were then replated onto 100 mm PORN coated plates at a cell density of 10^6 cells per plate (10 ml growth medium). […]
The blots were probed with ^32P-labeled cDNA (NGF, NT-3 and BDNF probes) or oligonucleotide probe (FGF-2) by hybridization in Piperazine-N,N′-bis-(2-ethanesulfonic acid) (PIPES) buffer (50 mM PIPES, pH 6.8; 50 mM NaH2PO4; 0.1 M NaCl; 5% SDS and 1 mM EDTA) overnight at 50° C. […] Various concentrations ([…] of total RNA), as determined by spectrophotometry, of each sample were blotted and probed so that quantification could be done after insuring a linear film response. Quantification was performed using MCID Image Analysis (St. Catherine's, Ontario, Canada). […]

rat caudate nuclei = experiment: GAD activity in rat caudate nuclei damaged by NMDA; assay type: in vivo
Experimental: The effect of AIT-082 on in vivo neuroprotection was also assessed by assaying for glutamic acid decarboxylase (GAD) activity.
GAD activity in rat caudate nuclei was damaged in vivo by NMDA. Increasing amounts of NMDA (25-300 nmoles) were unilaterally infused into caudate nuclei of rats. Eight to 10 days after the injections, glutarnic acid decarboxylase (GAD) activity was assayed, as an index of the loss of GABA-ergic neurons. NMDA produced a dose-dependent lesion, which at its maximal extension caused a reduction of GAD activity by 50% in comparison with that of contralateral sham-operated nuclei (control). […] The necrotic areas are in white, whereas the shadow is the surrounding edema GAD activity was evaluated by measuring the ex novo formation of [^3H]GABA from dissected striata exposed to 1 μCi of [^3H]glutamate for 1 hour at 37° C. GABA was assayed by HPLC with fluorescence detection and the [3H]label associated with GABA was measured.

CNTF mRNA = experiment: RT-PCR of growth factor mRNA after T8 spinal cord hemisection: CNTF; assay type: in vivo, Wistar rats

SMILES: O=C(CCn1cnc2c(=O)[nH]cnc21)Nc1ccc(C(=O)O)cc1 [AIT-082, N-4-carboxyphenyl-3-(6-oxohydropurin-9-yl)propanamide]
- affinity (Kd) for QNB (acetylcholine receptors): no effect
- number of receptors (B max) (acetylcholine receptors; cortex): decrease
- number of receptors (B max) (acetylcholine receptors; striatum): increase
- binding to the adenosine receptor (adenosine receptor): does not bind
- Locomotor activity, Movements (mean ± S.D.) Post-drug (mice; AIT dose 0.005 mg/kg): 1375 ± 563
- Locomotor activity, Movements (mean ± S.D.) Difference (mice; AIT dose 0.005 mg/kg, pre-drug minus post-drug): 509 ± 429
- Locomotor activity, Movements (mean ± S.D.) Difference (mice; AIT dose 0.05 mg/kg): 209 ± 340
- Locomotor activity, Movements (mean ± S.D.) Post-drug (mice; AIT dose 0.05 mg/kg): 1508 ± 456
- Locomotor activity, Movements (mean ± S.D.) Difference (mice; AIT dose 0.5 mg/kg): 290 ± 435
- Locomotor activity, Movements (mean ± S.D.) Post-drug (mice; AIT dose 0.5 mg/kg): 1320 ± 689
- Locomotor activity, Movements (mean ± S.D.) Difference (mice; AIT dose 30.0 mg/kg): 342 ± 267
- Locomotor activity, Movements (mean ± S.D.) Post-drug (mice; AIT dose 30.0 mg/kg): 1098 ± 189
- BDNF mRNA (BDNF mRNA; AIT-082 100 mM): +
- BDNF mRNA (BDNF mRNA; AIT-082 + NGF (40 ng/ml)): +
- GAD activity in damaged striata (rat caudate nuclei; daily intraperitoneal injection for seven days, 200 mnoles NMDA): nearly completely preserved GAD activity
- loss of GAD activity (rat caudate nuclei; local, 300 mnoles AIT-082 coinfused with 200 nmoles NMDA): almost completely prevented the loss of GAD activity
- CNTF mRNA level (CNTF mRNA; at the level of the lesion): increased mean CNTF mRNA levels over control animals, although not statistically so
- CNTF mRNA level (CNTF mRNA; caudal to lesion, 7 days): no significant effects
- CNTF mRNA level (CNTF mRNA; rostral to lesion, 3 days, sham-operated over lesion animals): significantly increased
- CNTF mRNA level (CNTF mRNA; rostral to lesion, 7 days, control animals, over water alone (p=0.017)): robust increase
- CNTF mRNA level (CNTF mRNA; rostral to lesion, 7 days, relative to lesion alone (p=0.056)): increased CNTF mRNA levels
